Experimental data from US6673788B2, “Electrophilic ketones for the treatment of herpesvirus infections” (G. D. Searle & Co., priority 1996, dated 2004).
pIC50: −log10 of the molar value. Read-outs that look alike come from different tables or passages of the source.

How the values were obtained:
[1] = biological target: T1, Bovine pancreas α-chymotrypsin (Bos taurus, UniProt P00766, DEL14-15/DEL147-148); experiment: Chymotrypsin assay; assay type: biochemical
T1 construct: purchased Sigma type II; host or cells: bovine pancreas
Protocol: The chymotrypsin assay was modified from the method of Delmar et al [Anal. Biochem., 99, 316-320 (1979)]. Bovine pancreas α-chymotrypsin (type II, Sigma) was dissolved in 0.001 N HCl at 1 mg/ml and further diluted 1/600 in assay buffer (0.1 M Tris, pH 7.8, containing 0.1 M CaCl2) before use. 20 μl of test compound in DMSO (or DMSO alone), 100 μl of assay buffer and 30 μl of enzyme were added to 96 well plates, mixed and pre-incubated for 30 minutes at ambient temperature. Reaction was initiated by addition of 50 μl of 0.2 mM N-succinyl-Ala-Ala-Pro-Phe-p-nitroanilide (Sigma; 2 mM in DMSO diluted 1/10 in assay buffer before use). The increase in absorbance at 405 nm was monitored for 10 minutes with a Biotek EL340 plate reader.

[2] = biological target: HCMV protease (Assemblin) (Human cytomegalovirus, UniProt P16753); experiment: Enzymatic assay for HCMV protease (assemblin) inhibitors; assay type: biochemical; settings: pNA substrate, 30 min preincubation
HCMV protease (Assemblin), sequence (P16753 1-256): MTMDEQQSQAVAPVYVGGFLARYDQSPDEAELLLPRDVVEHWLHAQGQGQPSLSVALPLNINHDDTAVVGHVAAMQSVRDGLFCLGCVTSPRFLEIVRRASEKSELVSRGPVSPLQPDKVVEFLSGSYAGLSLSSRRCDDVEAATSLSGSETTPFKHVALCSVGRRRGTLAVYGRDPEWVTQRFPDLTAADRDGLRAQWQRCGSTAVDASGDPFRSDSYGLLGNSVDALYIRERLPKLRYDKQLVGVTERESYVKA
Protocol: Assemblin protease activity was determined using a chromogenic para-nitroanilide (pNA) substrate based on the hCMV maturation cleavage site, succinyl-AGVVNA-para-nitroanilide. […] Potential protease inhibitors were dissolved in DMSO and 10 μL were added to the wells of a 96-well plate (Dynatech, Immulon 1). Enzyme was diluted to 4.8 μg/mL in assay buffer (10 mM sodium phosphate, pH 7.4, 150 mM sodium acetate, 0.1% CHAPS, 20% glycerol) and 100 μL were added to each well. Following a 30 minute incubation at room temperature, 50 μL substrate (1 part 20 mM succinyl-AGVVNA-paranitroanilide (SEQID:1) in DMSO plus 9 parts assay buffer) were added, and periodic readings taken in a microplate reader at 405 nm relative to 650 nm. Activities were expressed as milliabsorbance unit (mAU) change per minute. Inhibitor potency was determined by comparison with incubations lacking inhibitor, which under these conditions gave an increase of 0.5-1 mAU/min. No increase was seen when enzyme was omitted. Results [IC50 (μM)] are included in Table 1.
The construction also encoded six additional histidine residues at the amino terminus of the protease. These additional histidine residues provided an affinity ligand by which it was purified using nickel-nitriloacetic acid-agarose (Qiagen).
The purified protease was stored as a 1-3 mg/ml stock solution in 20 mM HEPES buffer, pH 7.4; containing 20% (v/v) glycerol. This stock was diluted with assay buffer to 4.8 μg/ml. A 100 μL aliquot of this solution was used in the enzyme reaction.
A specific substrate was synthesized based on the cleavage specificity of HCMV protease at the “maturation site” of the assembly protein (F. Liu and B. Roizman, J. Virol., 65, 5149 (1991), and A. Welch, et al, J. Virol., 65, 4091 (1991)). The assembly protein maturation site has the sequence . . . AGVVNA*SCRLATA . . .; the substrate used was succinyl-AGVVNA-PNA (SEQID:1) which was prepared by standard peptide synthetic methods such as that described in Bodansky and Bodansky, “The Practice of Peptide Synthesis” (1984), and was stored as a stock solution at 20 mM in dimethyl sulfoxide. This was diluted 10-fold with assay buffer to give a concentration of 2 mM just before use. An aliquot of 50 μL was used in the reaction
An assay Buffer (10 mM sodium phosphate buffer, pH 7.4; 150 mM sodium acetate; 0.1% CHAPS; and 20% (v/v) glycerol) was used to dilute stock solutions of enzyme and substrate.

[3] = tested on: human foreskin fibroblasts; assay type: cell-based
Description: (§1) These complimentary assays tested the ability of a compound to inhibit the production of new virus and the toxicity of the compound to the host cells. It was important that both assays be performed simultaneously in order to compare the results directly since, toxicity may indirectly reduce viral yield.
Viral yield was estimated by measuring the amount of a viral antigen produced 4 days post infection with a monoclonal antibody to an abundant “immediate early” viral protein. An enzyme-linked (horseradish peroxidase) secondary antibody specific to the primary (mouse) antibody was used to measure the amount of viral antigen. Test compounds were diluted to 2-times the desired final concentration in DMEM+5% FBS. One hundred microliters of this solution was placed in each well of a 96-well plate. This was performed once for the antiviral 96-well plate and again for a cytotoxicity plate. Two controls were also included for both plates; a no drug control and a no virus control. Ganciclovir was routinely tested in antiviral and cytotoxicity plates as a reference standard because it has known antiviral activity for HCMV. All cells were prepared by harvesting human foreskin fibroblasts, with trypsin and re-suspending at a concentration of 5×10^5 cells per ml in DMEM. Infected cells were prepared by infecting these with HCMV (strain AD169) at a multiplicity of infection=0.2. One hundred microliters of uninfected cells (5×10^4 cells) were added to the appropriate wells of the cytotoxicity plate. In a similar manner 100 μl of infected cells (5×10^4 cells) were added to the appropriate wells of the antiviral plate. […]
In this assay, HCMV replication was monitored by the production of E. coli beta-galactosidase by the engineered virus RC256 [Spaete and Mocarski, Proc. Nat. […] The reaction was stopped with 100 μl 1M CAPS buffer, pH=11.0, per well and the optical density was read at 410 nanometers. Ganciclovir was used as a positive control and the EC50 was determined as described above for the HCMV ELISA. […]

[4] = tested on: human foreskin fibroblasts; assay type: cell-based; settings: 96 h
Description: as §1
Viral yield was estimated by measuring the amount of a viral antigen produced 4 days post infection with a monoclonal antibody to an abundant “immediate early” viral protein. An enzyme-linked (horseradish peroxidase) secondary antibody specific to the primary (mouse) antibody was used to measure the amount of viral antigen. Test compounds were diluted to 2-times the desired final concentration in DMEM+5% FBS. One hundred microliters of this solution was placed in each well of a 96-well plate. This was performed once for the antiviral 96-well plate and again for a cytotoxicity plate. Two controls were also included for both plates; a no drug control and a no virus control. Ganciclovir was routinely tested in antiviral and cytotoxicity plates as a reference standard because it has known antiviral activity for HCMV. All cells were prepared by harvesting human foreskin fibroblasts, with trypsin and re-suspending at a concentration of 5×10^5 cells per ml in DMEM. Infected cells were prepared by infecting these with HCMV (strain AD169) at a multiplicity of infection=0.2. […]

| Structure (SMILES) | pIC50 [2] | melting point | other results |
| --- | --- | --- | --- |
| O=C(CCc1ccccc1)Nc1cc(F)ccc1C(=O)C(F)(F)F [Example 2, N-[5-Fluoro-2-(2,2,2-trifluoro-1-oxoethyl)phenyl]benzenepropanamide] | 5.28 | – | – |
| O=C(CCc1ccccc1)Nc1cc([N+](=O)[O-])ccc1C(=O)C(F)(F)F [Example 7, N-[5-Nitro-2-[2,2,2-trifluoro-1-oxoethyl)phenyl]benzenepropanamide] | – | – | Antiviral Activity TD50 [4]: > 100 µM |
| O=C(Nc1ccccc1C(=O)C(F)(F)F)C(F)(F)F [Example 10, α,α,α-Trifluoro-N-[2-(2,2,2-trifluoro-1-oxoethyl)phenyl]acetamide] | – | – | Antiviral Activity TD50 (μM) [4]: >100/>100 μM |
| O=C(Nc1ccc(I)cc1C(=O)C(F)(F)F)c1ccco1 [Example 13, N-[4-Iodo-2-(2,2,2-trifluoro-1-oxoethyl)phenyl]furan-2-carboxamide] | 5.08 | – | Antiviral Activity TD50 [3]: > 100 µM |
| COc1ccccc1C(=O)Nc1ccccc1C(=O)C(F)(F)C(=O)NC(C)C [Example 17, N-[2-(3-(2-Propylamino)-3-oxo-2,2-difluoro-1-oxopropyl)phenyl]2-methoxyphenylcarboxamide] | 5.07 | 131.5 to 132 °C | – |

More lines, main results first:

| pIC50 [2] | melting point | Structure (SMILES) | other results |
| --- | --- | --- | --- |
| 5.11 | – | O=C(Nc1ccccc1C(=O)C(F)(F)F)c1ccco1 [Example 1, N-[2-(2,2,2-Trifluoro-1-oxoethyl)phenyl]furan-2-carboxamide] | Chymotrypsin % @ Conc. (μM) ([1]; @ 300 μM): 0% @ 300 |
| 4.31 | – | O=C(CCc1ccccc1)Nc1ccccc1C(=O)C(F)(F)F [Example 4, N-[2-(2,2,2-Trifluoro-1-oxoethyl)phenyl]benzenepropanamide] | – |
| 5.43 | – | O=C(Nc1ccccc1C(=O)C(F)(F)F)c1cnccn1 [Example 5, N-[2-(2,2,2-Trifluoro-1-oxoethyl)phenyl]pyrazine-2-carboxamide] | Chymotrypsin % @ Conc. (μM) ([1]; @ 300 μM): 0% @ 300; Antiviral Activity TD50 ([3]; 3 days): > 100 µM |
| 4.77 | – | O=C(Nc1ccccc1C(=O)C(F)(F)F)OCc1ccccc1 [Example 6, Phenylmethyl N-[2-(2,2,2-trifluoro-1-oxoethyl)phenyl]carbamate] | – |
| 4.59 | – | O=C(Nc1ccccc1C(=O)C(F)(F)F)c1cc2ccccc2s1 [Example 9, N-[2-(2,2,2-Trifluoro-1-oxoethyl)phenyl]-1-benzothiophene-2-carboxamide] | Chymotrypsin % @ Conc. (μM) ([1]; @ 100 μM): 48% @ 100; Antiviral Activity TD50 ([3]; 3 days): > 100 µM |
| – | 134 to 135 °C | O=C(COc1ccc(Cl)cc1)Nc1ccccc1C(=O)C(F)(F)F [Example 14, N-[2-(2,2,2-Trifluoro-1-oxoethyl)phenyl]4-chlorophenoxyacetamide] | – |
| – | 188 to 193 °C | O=C(Nc1ccccc1C(=O)C(F)(F)F)c1cc2ccccc2[nH]1 [Example 15, N-[2-(2,2,2-Trifluoro-1-oxoethyl)phenyl]indolyl-2-carboxamide] | – |
| 4.44 | 130 to 132 °C | O=C(Nc1ccccc1C(=O)C(F)(F)F)c1cc2ccccc2o1 [Example 16, N-[2-(2,2,2-Trifluoro-1-oxoethyl)phenyl]benzofuranyl-2-carboxamide] | – |
